Experimental findings from US11078170B2 (Assembly Biosciences, Inc., priority 2017, dated 2021) are described below.

Structures are written as SMILES. Bounds are passed on as bounds.

For this assay, the system named is HBV viral production from HepAD38 cells. Nature of the assay: Activity of test compounds on viral production from HepAD38 cells (viral load by qPCR of HBV core sequence in supernatant). The format is cell-based. Particulars: Hepatitis B virus, 120 h, 5 days incubation, HBV DNA in supernatant by qPCR, top concentration 10 μM, read-out: Viral Load EC50 Activity range. The gist of the method:
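EC50 and CC50 come from four-parameter fits of supernatant viral load and CellTiter-Glo viability, respectively. Viral load was measured by core-region TaqMan qPCR against HBV DNA standards and compared with DMSO controls. Tet-free HepAD38 cells (50,000/well, 2% FBS) were exposed to compound, highest 10 μM, for 5 days at 37° C.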
(In general: In qPCR the cycle at which signal appears reflects the starting amount.)
Take `[2H]C([2H])([2H])N1[C@@H](C(=O)Nc2ccc(F)c(Cl)c2)C[C@@H](c2ncc(-c3cn(C)cn3)s2)NS1(=O)=O` (relative stereo) [HBV-CSU-338-ISO-II, Cis-N-(3-Chloro-4-fluorophenyl)-2-(methyl-d3)-5-(5-(1-methyl-1H-imidazol-4-yl)thiazol-2-yl)-1,2,6-thiadiazinane-3-carboxamide 1,1-dioxide]: the EC50 is 1000 to 5000 nM. To `CN1[C@@H](C(=O)Nc2ccc(F)c(Cl)c2)C[C@@H](c2ccccn2)NS1(=O)=O` [HBV-CSU-031-ISO-II, Cis-N-(3-Chloro-4-fluorophenyl)-2-methyl-5-(pyridin-2-yl)-1,2,6-thiadiazinane-3-carboxamide 1,1-dioxide] belongs greater than 5000 nM; to `CC(C)(C)OCCN1C(C(=O)Nc2ccc(F)c(Cl)c2)CC(c2nccs2)NS1(=O)=O` (racemic) [HBV-CSU-071, Cis-2-(2-(tert-Butoxy)ethyl)-N-(3-chloro-4-fluorophenyl)-5-(thiazol-2-yl)-1,2,6-thiadiazinane-3-carboxamide 1,1-dioxide], 1000 to 5000 nM; to `CC(C)n1cc(-c2csc([C@@H]3C[C@H](C(=O)Nc4ccc(F)c(Cl)c4)N(C)S(=O)(=O)N3)c2)cn1` [HBV-CSU-295-ISO-II, Cis-N-(3-chloro-4-fluorophenyl)-5-(4-(1-isopropyl-1H-pyrazol-4-yl)thiophen-2-yl)-2-methyl-1,2,6-thiadiazinane-3-carboxamide 1,1-dioxide], 1000 to 5000 nM. As to `[2H]C1C([2H])(c2ccc(Br)s2)NS(=O)(=O)N(C([2H])([2H])[2H])C1([2H])C(=O)Nc1ccc(F)c(Cl)c1` (stereo not drawn) [HBV-CSU-372, Cis-5-(5-bromothiophen-2-yl)-N-(3-chloro-4-fluorophenyl)-2-(methyl-d3)-1,2,6-thiadiazinane-3,4,5-d3-3-carboxamide 1,1-dioxide], the half-maximal effective concentration (EC50) was less than 1000 nM.

As for `[2H]C([2H])([2H])N1[C@@H](C(=O)Nc2ccc(F)c(Cl)c2)CC(c2ccc(-c3cn(C)cn3)s2)NS1(=O)=O` (stereo in doubt) [HBV-CSU-373-ISO-II, Cis-N-(3-Chloro-4-fluorophenyl)-2-(methyl-d3)-5-(5-(1-methyl-1H-imidazol-4-yl)thiophen-2-yl)-1,2,6-thiadiazinane-3-carboxamide 1,1-dioxide], the concentration giving a half-maximal response (EC50) was less than 1000 nM. Regarding `O=C(Nc1ccc(F)c(Cl)c1)[C@H]1C[C@@H](c2nccs2)NS(=O)(=O)N1CCCN1CCOCC1` [HBV-CSU-103-ISO-I], the EC50 is greater than 5000 nM. With `O=C(O)CN1C(C(=O)Nc2ccc(F)c(Cl)c2)CC(c2nccs2)NS1(=O)=O` (stereo not drawn) [HBV-CSU-110, Cis-2-(3-((3-Chloro-4-fluorophenyl)carbamoyl)-1,1-dioxido-5-(thiazol-2-yl)-1,2,6-thiadiazinan-2-yl)acetic acid], the EC50 is greater than 5000 nM. For `O=C(Nc1ccc(F)c(Cl)c1)C1CC(c2nccs2)NS(=O)(=O)N1CCCO` (racemic) [HBV-CSU-078, Cis-N-(3-Chloro-4-fluorophenyl)-2-(3-hydroxypropyl)-5-(thiazol-2-yl)-1,2,6-thiadiazinane-3-carboxamide 1,1-dioxide], the EC50 was in the range of 1000 to 5000 nM. Consider `CN1C(C(=O)Nc2ccc(F)c(Cl)c2)CC(c2ccns2)NS1(=O)=O` (stereo not drawn) [HBV-CSU-057, Cis-N-(3-chloro-4-fluorophenyl)-5-(isothiazol-5-yl)-2-methyl-1,2,6-thiadiazinane-3-carboxamide 1,1-dioxide], for which the 50% effective concentration (EC50) was less than 1000 nM. With `CN1[C@H](C(=O)Nc2ccc(F)c(Cl)c2)C[C@H](c2cc(-c3ccccn3)cs2)NS1(=O)=O` [HBV-CSU-168-ISO-II, Cis-N-(3-chloro-4-fluorophenyl)-2-methyl-5-(4-(pyridin-2-yl)thiophen-2-yl)-1,2,6-thiadiazinane-3-carboxamide 1,1-dioxide] the figure was less than 1000 nM; with `CN1C(C(=O)Nc2ccc(F)c(Cl)c2)CC(c2ccc(-c3ccc(F)cc3)s2)NS1(=O)=O` (stereo not drawn) [HBV-CSU-238], less than 1000 nM. Regarding `COCCN1[C@H](C(=O)Nc2ccc(F)c(Cl)c2)C[C@H](c2ccc(F)cc2)NS1(=O)=O` [HBV-CSU-210-ISO-II, Cis-N-(3-Chloro-4-fluorophenyl)-5-(4-fluorophenyl)-2-(2-methoxyethyl)-1,2,6-thiadiazinane-3-carboxamide 1,1-dioxide], the EC50 was less than 1000 nM. To `[2H]C([2H])([2H])N1[C@@H](C(=O)Nc2ccc(F)c(Cl)c2)C[C@@H](c2ncc(Br)s2)NS1(=O)=O` [HBV-CSU-336-ISO-II, 5-(5-Bromothiazol-2-yl)-N-(3-chloro-4-fluorophenyl)-2-(methyl-d3)-1,2,6-thiadiazinane-3-carboxamide 1,1-dioxide] belongs 1000 to 5000 nM; to `CN1C(C(=O)Nc2ccc(F)c(Cl)c2)CC(c2cnc(C(F)(F)F)s2)NS1(=O)=O` (stereo not drawn) [HBV-CSU-226, Cis-N-(3-chloro-4-fluorophenyl)-2-methyl-5-(2-(trifluoromethyl)thiazol-5-yl)-1,2,6-thiadiazinane-3-carboxamide 1,1-dioxide], 1000 to 5000 nM.

As to `COCCN1[C@H](C(=O)Nc2ccc(F)c(Cl)c2)C[C@H](c2nccs2)NS1(=O)=O` [HBV-CSU-058-ISO-II, Cis-N-(3-chloro-4-fluorophenyl)-2-(2-methoxyethyl)-5-(thiazol-2-yl)-1,2,6-thiadiazinane-3-carboxamide 1,1-dioxide], the EC50 was less than 1000 nM. As to `COCCN1[C@@H](C(=O)Nc2ccc(F)c(Cl)c2)C[C@@H](c2ccc(F)cc2)NS1(=O)=O` [HBV-CSU-210-ISO-I, Cis-N-(3-Chloro-4-fluorophenyl)-5-(4-fluorophenyl)-2-(2-methoxyethyl)-1,2,6-thiadiazinane-3-carboxamide 1,1-dioxide], the EC50 was greater than 5000 nM. Consider `CN1C(C(=O)Nc2ccc(F)c(Cl)c2)CC(c2cc(-c3ncnn3C)cs2)NS1(=O)=O` (racemic) [HBV-CSU-327, Cis-N-(3-Chloro-4-fluorophenyl)-2-methyl-5-(4-(1-methyl-1H-1,2,4-triazol-5-yl)thiophen-2-yl)-1,2,6-thiadiazinane-3-carboxamide 1,1-dioxide], for which the EC50 was less than 1000 nM. Take `CC(C)(C)OCCN1[C@@H](C(=O)Nc2ccc(F)c(Cl)c2)C[C@@H](c2nccs2)NS1(=O)=O` (relative stereo) [HBV-CSU-071-ISO-II, Cis-2-(2-(tert-Butoxy)ethyl)-N-(3-chloro-4-fluorophenyl)-5-(thiazol-2-yl)-1,2,6-thiadiazinane-3-carboxamide 1,1-dioxide]: the EC50 was in the range of 1000 to 5000 nM.

With `COCCN1C(C(=O)Nc2ccc(F)c(Cl)c2)CC(c2ccc(F)cc2)NS1(=O)=O` (racemic) [HBV-CSU-210, Cis-N-(3-Chloro-4-fluorophenyl)-5-(4-fluorophenyl)-2-(2-methoxyethyl)-1,2,6-thiadiazinane-3-carboxamide 1,1-dioxide], the EC50 was less than 1000 nM. With `CN1C(C(=O)Nc2ccc(F)c(Cl)c2)CC(C2CCCC2)NS1(=O)=O` (racemic) [HBV-CSU-222, Cis-N-(3-chloro-4-fluorophenyl)-5-cyclopentyl-2-methyl-1,2,6-thiadiazinane-3-carboxamide 1,1-dioxide], the 50% effective concentration (EC50) was less than 1000 nM. For the molecule `CN1[C@H](C(=O)Nc2ccc(F)c(Cl)c2)C[C@H](c2ccc(F)cc2)NS1(=O)=O` [HBV-CSU-112-ISO-I, Cis-N-(3-Chloro-4-fluorophenyl)-5-(4-fluorophenyl)-2-methyl-1,2,6-thiadiazinane-3-carboxamide 1,1-dioxide], the EC50 was less than 1000 nM. With `Cc1cccc(NC(=O)C2CC(c3cccs3)NS(=O)(=O)N2C)c1` (racemic) [HBV-CSU-013, Cis-2-Methyl-5-(thiophen-2-yl)-N-(m-tolyl)-1,2,6-thiadiazinane-3-carboxamide 1,1-dioxide] the figure was less than 1000 nM; with `O=C(Nc1ccc(F)c(Cl)c1)[C@@H]1C[C@H](c2nccs2)NS(=O)(=O)N1CCCN1CCOCC1` [HBV-CSU-103-ISO-II], 1000 to 5000 nM; with `CN1[C@@H](C(=O)Nc2ccc(F)c(Cl)c2)C[C@@H](c2ccc(-c3ccccn3)s2)NS1(=O)=O` [HBV-CSU-160-ISO-II, Cis-N-(3-chloro-4-fluorophenyl)-2-methyl-5-(5-(pyridin-2-yl)thiophen-2-yl)-1,2,6-thiadiazinane-3-carboxamide 1,1-dioxide], 1000 to 5000 nM. To `CCc1sc([C@H]2C[C@@H](C(=O)Nc3ccc(F)c(Cl)c3)N(C)S(=O)(=O)N2)cc1-c1cnn(C)c1` [HBV-CSU-305-ISO-I, Cis-N-(3-Chloro-4-fluorophenyl)-5-(5-ethyl-4-(1-methyl-1H-pyrazol-4-yl)thiophen-2-yl)-2-methyl-1,2,6-thiadiazinane-3-carboxamide 1,1-dioxide] belongs less than 1000 nM; to `CN1C(C(=O)Nc2ccc(F)c(Cl)c2)CC(c2cc(-c3ccc(F)cn3)cs2)NS1(=O)=O` (racemic) [HBV-CSU-243, Cis-N-(3-chloro-4-fluorophenyl)-5-(4-(5-fluoropyridin-2-yl)thiophen-2-yl)-2-methyl-1,2,6-thiadiazinane-3-carboxamide 1,1-dioxide], less than 1000 nM; to `CN1C(C(=O)Nc2ccc(F)c(Cl)c2)CC(c2ncc(-c3cn(C)cn3)s2)NS1(=O)=O` (racemic) [HBV-CSU-276, Cis-N-(3-Chloro-4-fluorophenyl)-2-methyl-5-(5-(1-methyl-1H-imidazol-4-yl)thiazol-2-yl)-1,2,6-thiadiazinane-3-carboxamide 1,1-dioxide], less than 1000 nM. With `CN1[C@H](C(=O)Nc2ccc(F)c(Cl)c2)C[C@H](c2cc(Br)cs2)NS1(=O)=O` [HBV-CSU-146-ISO-I, 5-(4-Bromothiophen-2-yl)-N-(3-chloro-4-fluorophenyl)-2-methyl-1,2,6-thiadiazinane-3-carboxamide 1,1-dioxide], the EC50 was less than 1000 nM. As to `CN1C(C(=O)Nc2ccc(F)c(Cl)c2)CC(c2ccc(C(N)=O)cc2)NS1(=O)=O` (racemic) [HBV-CSU-214, Cis-5-(4-Carbamoylphenyl)-N-(3-chloro-4-fluorophenyl)-2-methyl-1,2,6-thiadiazinane-3-carboxamide 1,1-dioxide], the EC50 was less than 1000 nM.

By EC50 is commonly meant the concentration that produces a half-maximal response.
